Laboratory results as given in patent publication US20220204495A1, “INHIBITING TRABID” (Valo Health, Inc., priority 2019, published 2022).

Molecular target: T1, TRABID(245-697) (Homo sapiens, UniProt Q9UGI0)
T1 construct: 10 nM TRABID(245-697) and 25 nM Ub-Rh110MP (UbiQ, UbiQ-126) final concentrations
T1 sequence (Q9UGI0 245-697): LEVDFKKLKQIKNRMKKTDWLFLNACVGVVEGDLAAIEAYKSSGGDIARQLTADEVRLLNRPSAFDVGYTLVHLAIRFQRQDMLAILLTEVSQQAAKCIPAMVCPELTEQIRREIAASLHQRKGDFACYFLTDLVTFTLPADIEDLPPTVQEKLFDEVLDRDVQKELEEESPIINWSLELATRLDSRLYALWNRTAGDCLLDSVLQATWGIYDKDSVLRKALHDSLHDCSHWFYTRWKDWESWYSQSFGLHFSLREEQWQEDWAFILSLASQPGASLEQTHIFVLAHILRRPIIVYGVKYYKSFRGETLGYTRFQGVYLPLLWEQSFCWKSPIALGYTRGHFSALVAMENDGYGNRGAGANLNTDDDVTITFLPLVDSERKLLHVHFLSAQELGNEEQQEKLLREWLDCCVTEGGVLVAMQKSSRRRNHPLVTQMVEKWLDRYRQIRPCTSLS
Test: TRABID inhibition biochemical assay (Ub-Rh110MP fluorescence)
Settings: 10 nM TRABID(245-697), 25 nM Ub-Rh110MP, 30 minutes preincubation with compound, 10-point 3-fold series 26.6 μM to 1.35 nM
Protocol: TRABID enzymatic assays were performed in a final volume of 6 μL in buffer containing 20 mM Tris-HCl pH 8.0, (Corning 46-031-CM), and 1 mM GSH (Sigma, G4251), 0.03% BGG (Sigma, G7516), and 0.01% Triton X-100 (Sigma, 93443). Test compounds were serially diluted in DMSO (Sigma, G7516) to obtain 10-point, 3-fold series. Nanoliter quantities were pre-dispensed into 1536 assay plates (Corning, 9110BC) for the concentration response range, 26.6 μM to 1.35 nM. 3 μL of 2× enzyme was added to the assay plates, preincubated with compound for 30 minutes and then 3 μL of 2× substrate was added to initiate the reaction (10 nM TRABID(245-697) and 25 nM Ub-Rh110MP (UbiQ, UbiQ-126) final concentrations). Enzyme and substrate concentrations and incubation times were optimized for the maximal signal-to-background while maintaining linear initial velocity conditions at a fixed substrate concentration below Km.
Fluorescence signal was measured on an EnVision Plate Reader (PerkinElmer) equipped with 485 nm excitation filter and 535 nm emission filters.
Rates were calculated by: rate=((final FLU−initial FLU)/600 seconds) where final FLU=fluorescence at time 10 minutes, initial FLU=fluorescence at time 0 minutes and 600=duration of reaction in seconds.
Data were reported as percent inhibition compared with control wells based on the following equation: % inh=[…] where rate=measured rate of fluorescence generated during assay, AveLow=average rate of no enzyme control (n=32), and AveHigh=average rate of DMSO control (n=32).
IC50 values were determined by curve fitting of the standard 4 parameter logistic fitting algorithm included in the Activity Base software package (IDBS) using XE Designer equation Model 205. Data were fitted using the Levenburg Marquardt algorithm.

**Q.** With `CN(CCCNC#N)C(=O)c1nc(-c2ccccc2)cs1` [Compound 48] as the compound, how does the IC50 read?
**A.** 8740 nM

**Q.** `N#CNC1CC2(CCN(C(=O)c3csc(-c4ccc(Cl)cc4Cl)n3)CC2)C1` [Compound 44] was tested. Which IC50 did it give?
**A.** 8000 nM

**Q.** With `C[C@H](CNC#N)C(=O)Nc1cc(-c2ccc(-c3cnn(C)c3)cc2)no1` [Compound 18, (2R)-3-(cyanoamino)-2-methyl-N-[3-[4-(1-methylpyrazol-4-yl)phenyl]-1,2-oxazol-5-yl]propanamide] as the compound, how does the IC50 read?
**A.** 1660 nM

**Q.** With `COc1ccc(-c2cc(C(=O)N3CC[C@@]4(CC4NC#N)C3)on2)cc1` (some centres unmarked) [Compound 34] as the compound, how does the IC50 read?
**A.** 5660 nM

**Q.** For `N#CNC[C@H]1CN(C(=O)c2csc(-c3ccc(Cl)cc3Cl)n2)CCO1` [Compound 24, Cyano({[(2S)-4-[2-(2,4-dichlorophenyl)-1,3-thiazole-4-carbonyl]morpholin-2-yl]methyl})amine], which IC50 is on record?
**A.** 4000 nM

**Q.** For `COc1cccc(-c2ncc(C(=O)NCCCNC#N)s2)c1` [Compound 5, N-[3-(cyanoamino)propyl]-2-(3-methoxyphenyl)-1,3-thiazole-5-carboxamide], which IC50 is on record?
**A.** 872 nM

**Q.** `N#CNC1C[C@@]12CCN(C(=O)c1csc(-c3ccc(Cl)cc3Cl)n1)C2` (some centres unmarked) [Compound 7] was tested. Which IC50 did it give?
**A.** 1060 nM

**Q.** How did the IC50 turn out when `N#CNCC12CC1CN(C(=O)c1csc(-c3ccc(Cl)cc3Cl)n1)C2` (centres unmarked) [Compound 17] was run?
**A.** 1600 nM

**Q.** How did the IC50 turn out when `N#CNCCCC(=O)Nc1cnc(-c2ccccc2Oc2ccccc2)s1` [Compound 9, 4-(cyanoamino)-N-[2-(2-phenoxyphenyl)-1,3-thiazol-5-yl]butanamide] was run?
**A.** 1130 nM

**Q.** With `N#CNC[C@H]1CCN(C(=O)c2csc(-c3ccc(Cl)cc3Cl)n2)C1` [Compound 11] as the compound, how does the IC50 read?
**A.** 1160 nM

**Q.** With `N#CNC[C@H]1CCN(C(=O)c2nc(-c3ccccc3)cs2)C1` [Compound 46] as the compound, how does the IC50 read?
**A.** 8470 nM

**Q.** `COc1cccc(-c2ncc(NC(=O)[C@@H](C)CCNC#N)s2)c1` [Compound 6, (2S)-4-(cyanoamino)-N-[2-(3-methoxyphenyl)-1,3-thiazol-5-yl]-2-methylbutanamide] was tested. Which IC50 did it give?
**A.** 951 nM

**Q.** How did the IC50 turn out when `COc1cccc(-c2ncc(NC(=O)[C@H](C)CNC#N)s2)c1` [Compound 43, (2R)-3-(cyanoamino)-N-[2-(3-methoxyphenyl)-1,3-thiazol-5-yl]-2-methylpropanamide] was run?
**A.** 7880 nM

**Q.** How did the IC50 turn out when `Cn1cc(-c2ccc(-c3cc(NC(=O)CCNC#N)on3)cc2)cn1` [Compound 15, 3-(cyanoamino)-N-[3-[4-(1-methylpyrazol-4-yl)phenyl]-1,2-oxazol-5-yl]propanamide] was run?
**A.** 1390 nM

**Q.** How did the IC50 turn out when `COc1ccc(-c2cc(C(=O)N(C)CCCNC#N)on2)cc1` [Compound 41] was run?
**A.** 7750 nM

**Q.** Which IC50 does the source give for `N#CNC[C@H]1C[C@H](NC(=O)c2cnc(-c3ccccc3)s2)C1` [Compound 16, 2-phenyl-N-[(trans)-3-[(cyanoamino)methyl]cyclobutyl]-1,3-thiazole-5-carboxamide] here?
**A.** 1580 nM

**Q.** With `N#CNC[C@H]1CCCN1C(=O)c1csc(-c2ccc(Cl)cc2Cl)n1` [Compound 39] as the compound, how does the IC50 read?
**A.** 6620 nM

**Q.** How did the IC50 turn out when `N#CNC1C[C@@]12CCN(C(=O)c1nc(-c3ccccc3)cs1)C2` (some centres unmarked) [Compound 36] was run?
**A.** 6510 nM

**Q.** `COc1cccc(-c2cc(C(=O)N3CC[C@@]4(CC4NC#N)C3)on2)c1` (some centres unmarked) [Compound 38] was tested. Which IC50 did it give?
**A.** 520 nM

**Q.** Which IC50 does the source give for `Cn1cc(-c2ccc(-c3cc(NC(=O)CCCNC#N)on3)cc2)cn1` [Compound 8, 4-(cyanoamino)-N-[3-[4-(1-methylpyrazol-4-yl)phenyl]-1,2-oxazol-5-yl]butanamide] here?
**A.** 1060 nM

**Q.** With `COc1cccc(-c2ncc(NC(=O)CCCNC#N)s2)c1` [Compound 3, 4-(cyanoamino)-N-[2-(3-methoxyphenyl)-1,3-thiazol-5-yl]butanamide] as the compound, how does the IC50 read?
**A.** 743 nM

**Q.** With `N#CN[C@H]1CC[C@@H](NC(=O)c2cccc(Oc3ccccc3)c2)C1` [Compound 40] as the compound, how does the IC50 read?
**A.** 7290 nM

**Q.** Which IC50 does the source give for `N#CNCC1CN(C(=O)c2csc(-c3ccc(Cl)cc3Cl)n2)C1` [Compound 29] here?
**A.** 5160 nM

**Q.** For `N#CN[C@H]1[C@@H]2CN(C(=O)c3nc(-c4ccccc4)cs3)C[C@@H]21` [Compound 25], which IC50 is on record?
**A.** 4410 nM

**Q.** `COc1ccc(-c2cc(C(=O)N3CC4CC4(CNC#N)C3)on2)cc1` (centres unmarked) [Compound 31] was tested. Which IC50 did it give?
**A.** 5210 nM

**Q.** Which IC50 does the source give for `N#CN[C@H]1[C@@H]2CN(C(=O)c3csc(-c4ccc(Cl)cc4Cl)n3)C[C@@H]21` [Compound 26] here?
**A.** 4530 nM

**Q.** How did the IC50 turn out when `N#CNC[C@@H]1CCCN(C(=O)c2csc(-c3ccc(Cl)cc3Cl)n2)C1` [Compound 32] was run?
**A.** 5270 nM

**Q.** How did the IC50 turn out when `N#CNC[C@@H]1CCN(C(=O)c2csc(-c3ccccc3Oc3ccccc3)n2)C1` [Compound 1, cyano([[(3S)-1-[2-(2-phenoxyphenyl)-1,3-thiazole-4-carbonyl]pyrrolidin-3-yl]methyl])amine] was run?
**A.** 140 nM

**Q.** `COc1cccc(-c2cc(C(=O)N3CC4CC4(CNC#N)C3)on2)c1` (centres unmarked) [Compound 22] was tested. Which IC50 did it give?
**A.** 3400 nM

**Q.** For `C[C@@H](CNC#N)C(=O)Nc1cc(-c2ccc(-c3cnn(C)c3)cc2)no1` [Compound 19, (2S)-3-(cyanoamino)-2-methyl-N-[3-[4-(1-methylpyrazol-4-yl)phenyl]-1,2-oxazol-5-yl]propanamide], which IC50 is on record?
**A.** 2590 nM

**Q.** With `COc1ccccc1-c1nc(C(=O)N2CC[C@H](CNC#N)C2)cs1` [Compound 14, cyano([[(3R)-1-[2-(2-methoxyphenyl)-1,3-thiazole-4-carbonyl]pyrrolidin-3-yl]methyl])amine] as the compound, how does the IC50 read?
**A.** 1280 nM

**Q.** How did the IC50 turn out when `N#CN[C@H]1C[C@]2(CCN(C(=O)c3cc(-c4ccccn4)no3)C2)C1` (single isomer, unassigned) [Compound 45, {[(2r,4s)-6-[3-(pyridin-2-yl)-1,2-oxazole-5-carbonyl]-6-azaspiro[3.4]octan-2-yl]amino}formonitrile] was run?
**A.** 8100 nM

**Q.** How did the IC50 turn out when `COc1ccccc1-c1nc(C(=O)N2CC[C@@H](CNC#N)C2)cs1` [Compound 12, cyano([[(3S)-1-[2-(2-methoxyphenyl)-1,3-thiazole-4-carbonyl]pyrrolidin-3-yl]methyl])amine] was run?
**A.** 1250 nM

**Q.** How did the IC50 turn out when `COc1ccccc1-c1ncc(NC(=O)CCCNC#N)s1` [Compound 10, 4-(cyanoamino)-N-[2-(2-methoxyphenyl)-1,3-thiazol-5-yl]butanamide] was run?
**A.** 1160 nM

**Q.** With `CN(C(=O)c1cnc(-c2ccccc2)s1)[C@H]1C[C@H](CNC#N)C1` (single isomer, unassigned) [Compound 20, N-methyl-2-phenyl-N-[(trans)-3-[(cyanoamino)methyl]cyclobutyl]-1,3-thiazole-5-carboxamide] as the compound, how does the IC50 read?
**A.** 2950 nM

**Q.** Which IC50 does the source give for `Cn1cc(-c2ccc(-c3cc(C(=O)N4CCC5(CC(NC#N)C5)C4)on3)cc2)cn1` (centres unmarked) [Compound 13, [(6-[3-[4-(1-methyl-1H-pyrazol-4-yl)phenyl]-1,2-oxazole-5-carbonyl]-6-azaspiro[3.4]octan-2-yl)amino]formonitrile] here?
**A.** 1260 nM

**Q.** `COc1cccc(-c2ncc(NC(=O)[C@H](C)CCNC#N)s2)c1` [Compound 4, (2R)-4-(cyanoamino)-N-[2-(3-methoxyphenyl)-1,3-thiazol-5-yl]-2-methylbutanamide] was tested. Which IC50 did it give?
**A.** 850 nM

**Q.** How did the IC50 turn out when `N#CNC[C@H]1CCN(C(=O)c2csc(-c3ccccc3Oc3ccccc3)n2)C1` [Compound 2, cyano([[(3R)-1-[2-(2-phenoxyphenyl)-1,3-thiazole-4-carbonyl]pyrrolidin-3-yl]methyl])amine] was run?
**A.** 439 nM
